Experimental data taken from patent publication US20120225817A1, “THERAPEUTIC AGENT FOR GASTROINTESTINAL DISEASE” (Santen Pharmaceutical Co., Ltd., priority 2009, published 2012).
Residues, ends and D or L forms follow the SMILES beside them.

Tested on: Caco-2 cells
Assay: Effect on migration of gastrointestinal mucosal tissue cells (cut in a confluent Caco-2 cell layer, cell spreading area)
Format: cell-based, human
Settings: for Migration of Caco-2 cells (%): 18 hours, control = 100%, mean ± standard error, 8 samples
Procedure: An effect on cell migration was studied by the following method using Caco-2 cells which are a human colon cancer cell line.
In a 24-well plate coated with type IV collagen, Caco-2 cells were seeded at […] cells per well and cultured to confluence in a DMEM medium containing 10% FBS. A cut was formed in the cell layer using a razor blade, and a cell-free region was created with a cotton swab. After washing with a DMEM medium containing 1% FBS, the cells were cultured for 18 hours in the same medium containing each test compound under conditions of 37° C. and 5% CO2. The effect on the migration of Caco-2 cells was studied by taking pictures before adding the test compound and at 18 hours after the addition of the test compound and comparing cell spreading areas in a fixed region at 18 hours after the addition of the test compounds. Further, Caco-2 cells cultured in the same manner in the medium without containing the test compound were used as a control.
The results of the case where a single agent of SSSR was used are shown in Table 1, and the results of the case where SSSR and FGLM-NH2 were used in combination are shown in Table 2. In the tables, the migration of the Caco-2 cells is expressed as a mean and standard error calculated from the results of 8 samples for each test compound by taking the migration of the control cells as a standard (100%). Incidentally, the symbol “★★” indicates a statistical significance at a P value of <0.001 compared to the control.

Row | SMILES | Migration of Caco-2 cells (%) (FGLM-NH2 20 μM) | Effect on migration of Caco-2 cells (in words) (single agent, FGLM-NH2 trifluoroacetate at 20 μM) | Migration of Caco-2 cells (%) (SSSR 10 nM) | Migration of Caco-2 cells (%) (SSSR 30 μM) | Effect on migration of Caco-2 cells (in words) (SSSR trifluoroacetate at 30 μM) | Effect on migration of Caco-2 cells (in words) (single agent, SSSR trifluoroacetate at 10 nM)
1 | CSCC[C@H](NC(=O)[C@H](CC(C)C)NC(=O)CNC(=O)[C@@H](N)Cc1ccccc1)C(N)=O [FGLM-NH2, Phe-Gly-Leu-Met-NH2] (H-FGLM-NH2; N-terminus assumed) | 105.9 ± 3.9 | does not promote the migration of Caco-2 cells | – | – | – | –
2 | N=C(N)NCCC[C@H](NC(=O)[C@H](CO)NC(=O)[C@H](CO)NC(=O)[C@@H](N)CO)C(=O)O [SSSR, Ser-Ser-Ser-Arg] (H-SSSR-OH; N-terminus and C-terminus assumed) | – | – | 109.7 ± 5.1 | 125.0 ± 2.0 | promotes the migration of Caco-2 cells | does not promote the migration of Caco-2 cells
